Test results taken from paper PMC11249646, “Small-Molecule Disruptors of the Interaction between Calcium- and Integrin-Binding Protein 1 and Integrin αIIbβ3 as Novel Antiplatelet Agents” (ACS Pharmacology & Translational Science, 2024).
Read-outs that look alike come from different tables or passages of the source.

Target: T1, CIB1 and αIIb interaction (CIB1-GST : F-αIIb peptide) (Homo sapiens, UniProt Q99828)
T1 construct: made in house; host or cells: BL-21 plus RIL cells (E. coli)
T1 sequence (Q99828 1-191): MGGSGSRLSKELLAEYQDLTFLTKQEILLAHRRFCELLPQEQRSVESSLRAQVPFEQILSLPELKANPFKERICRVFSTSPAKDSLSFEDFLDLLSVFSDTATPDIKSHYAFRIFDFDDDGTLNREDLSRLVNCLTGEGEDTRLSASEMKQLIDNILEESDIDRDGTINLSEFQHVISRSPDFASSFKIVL
Test: FP assay, 1536-well qHTS format (primary and confirmatory screen)
Type: binding
Details: for Efficacy (%): negative = inhibition; for Curve Class: negative sign = inhibitory curve; for IC50: read-out: IC50

[1] = qHTS primary screen hits, Table S2
[2] = qHTS primary screen hits, Table S2, several classes where COUNT > 1
[3] = qHTS primary screen of LOPAC/NPACT libraries

Row | SMILES | Efficacy (%) [1] | Curve Class [2] | IC50 [1] | Curve Class [1] | other results
1 | Cc1c2c(=O)n(-c3ccccc3)[nH]c2cc(=O)n1Cc1ccco1.O=C(O)C(F)(F)F [NCGC00248469-01] | -43% | -2.4 | 56.2 µM |  | 
2 | Cc1c2c(=O)n(-c3ccccc3)[nH]c2cc(=O)n1CCc1ccccc1.O=C(O)C(F)(F)F [NCGC00248471-01] | -28% | -2.4 | 50.1 µM |  | 
3 | Cc1c2c(=O)n(-c3ccccc3)[nH]c2cc(=O)n1Cc1ccncc1.O=C(O)C(F)(F)F [NCGC00248478-01] | -31% | -2.4 | 50.1 µM |  | 
4 | O=C(Nc1ccc(S(=O)(=O)N2CCOCC2)cc1)c1cc(Cl)ccc1NS(=O)(=O)c1ccc(Cl)s1 [NCGC00249417-02] |  |  |  |  | Efficacy (%) (qHTS FP screen hits, Table S2): -34%; IC50 (qHTS FP screen hits, Table S2): 40.9 µM
5 | CCCc1c(O)c(O)c(C(=O)O)c2cc(Cc3ccccc3)c(C)cc12 [NCGC00249596-02] | -48% | -2.2 | 44.7 µM |  | 
6 | O=C(O)C(F)(F)F.c1ccc(-n2cc(-c3nnc4n3CCCCC4)cn2)cc1 [NCGC00249642-01] | -39% |  | 89.1 µM | -2.4 | 
7 | Cc1cc(NS(=O)(=O)c2ccc(Nc3nc(-c4ccc(C)c(C)c4)cs3)cc2)no1.O=C(O)C(F)(F)F [NCGC00249742-01] | -32% | -2.4 | 44.7 µM |  | 
8 | CC(=O)N1CCN(c2ccc(NC[C@H]3CO[C@](Cn4ccnc4)(c4ccc(Cl)cc4Cl)O3)cc2)CC1 [NCGC00250372-03] | -45% | -2.4 | 44.7 µM |  | 
9 | N#Cc1ccc(NS(=O)(=O)c2ccc(NC(=O)Cc3ccc(Cl)c(Cl)c3)cc2)cc1.O=C(O)C(F)(F)F [NCGC00253445-02] |  |  |  |  | Efficacy (%) (qHTS FP screen hits, Table S2): -18%; IC50 (qHTS FP screen hits, Table S2): 3.5 µM
10 | COc1ccnc2c1CCCCC2[S+]([O-])c1nc2ccccc2[nH]1 (stereo not shown) [NCGC00253591-01] | -30% | -2.2 | 56.2 µM |  | 
11 | Cc1cnc(-c2ccccc2C(C)C)nc1NC(C)c1ccc(-c2cccnc2)cc1.O=C(O)C(F)(F)F (stereo not shown) [NCGC00253889-01] | -56% |  | 56.2 µM | -2.4 | 
12 | CN(Cc1cnc2nc(N)nc(N)c2n1)c1ccc(C(=O)N[C@@H](CCC(=O)O)C(=O)O)cc1 [NCGC00260705-01] | -58% |  | 44.7 µM | -2.2 | 
13 | COc1ccc(Br)cc1S(=O)(=O)NC(=O)/C=C/c1ccccc1Cc1ccc2ccccc2c1 [NCGC00260960-01] | -50% |  | 22.4 µM | -2.2 | 
14 | CN1C[C@H](C(=O)N[C@]2(C)O[C@@]3(O)[C@@H]4CCCN4C(=O)[C@H](Cc4ccccc4)N3C2=O)C[C@@H]2c3cccc4[nH]cc(c34)C[C@H]21.CS(=O)(=O)O [NCGC00261042-01] |  |  |  |  | Efficacy (%) [3]: -32%; Curve Class [3]: -2.4; IC50 [3]: 56.2 µM
15 | O=c1c(-c2ccc(O)cc2)coc2cc(O)ccc12 [NCGC00261097-01] |  |  |  |  | Efficacy (%) [3]: -11%; Curve Class [3]: -2.4; IC50 [3]: 56.2 µM
16 | O=C1c2ccccc2-c2n[nH]c3cccc1c23 [NCGC00261158-01] | -52% |  | 14.1 µM | -1.2 | 
17 | O=C1NCc2c1c1c3ccccc3[nH]c1c1[nH]c3ccccc3c21 [NCGC00261167-01] |  |  |  |  | Efficacy (%) [3]: -24%; Curve Class [3]: -1.4; IC50 [3]: 1.4 µM
18 | O=C1NC(=O)/C(=C/c2ccc3c(c2)OC(F)(F)O3)S1 [NCGC00261190-01] | -33% |  | 17.8 µM | -1.2 | 
19 | CCOC(=O)N1CCN([N+]([O-])=NOc2ccc([N+](=O)[O-])cc2[N+](=O)[O-])CC1 [NCGC00261300-01] | -44% |  | 21.3 µM |  | 
20 | Cl.O=c1cc(N2CCOCC2)oc2c(-c3ccccc3)cccc12 [NCGC00261395-01] | -52% |  | 50.1 µM | -2.2 | 
21 | O=c1c(O)c(-c2ccc(O)cc2O)oc2cc(O)cc(O)c12 [NCGC00261461-01] |  |  |  |  | Efficacy (%) [3]: -26%; Curve Class [3]: -1.2; IC50 [3]: 4 µM
22 | CCCCc1ncc(/C=C(\Cc2cccs2)C(=O)O)n1Cc1ccc(C(=O)O)cc1.CS(=O)(=O)O [NCGC00261493-01] |  |  |  |  | Efficacy (%) [3]: -9%; Curve Class [3]: -1.4; IC50 [3]: 31.6 µM
23 | COC(=O)C1=C(C)NC(C)=C(C(=O)OCCN(C)Cc2ccccc2)C1c1cccc([N+](=O)[O-])c1.Cl (stereo not shown) [NCGC00261494-01] |  |  |  |  | Efficacy (%) [3]: -16%; Curve Class [3]: -1.2; IC50 [3]: 3.5 µM
24 | O=C1NC(=O)/C(=C/c2ccc3nccnc3c2)S1 [NCGC00261632-01] |  |  |  |  | Efficacy (%) [3]: -20%; Curve Class [3]: -1.2; IC50 [3]: 7.9 µM

Row | SMILES | Efficacy (%) [1] | Curve Class [2] | IC50 [1] | Curve Class [1] | other results
25 | CCN(CC)CCOc1ccc(Nc2ncc3cc(-c4c(Cl)cccc4Cl)c(=O)n(C)c3n2)cc1.Cl.Cl.O [NCGC00261745-01] | -36% |  | 50.1 µM | -2.2 | 
26 | O=C1c2c(O)cc(O)cc2OC(c2ccc(O)c(O)c2)C1O (stereo not shown) [NCGC00261882-01] |  |  |  |  | Efficacy (%) [3]: -14%; Curve Class [3]: -1.2; IC50 [3]: 10 µM
27 | CN1CCN(CCCN2c3ccccc3Sc3ccc(C(F)(F)F)cc32)CC1.Cl.Cl [NCGC00261917-01] |  |  |  |  | Efficacy (%) [3]: -35%; Curve Class [3]: -2.4
28 | O=C(O)CCCC[P+](c1ccccc1)(c1ccccc1)c1ccccc1.[Br-] [NCGC00261975-01] | -44% | -2.4 | 56.2 µM |  | 
29 | O=C(O)C(F)(F)F.O=C(c1ccc2c(c1)ncn2-c1ccc(C(F)(F)F)cc1)N1CCCCC1 [NCGC00262230-01] | -43% |  | 44.7 µM | -2.2 | 
30 | O=C(Cn1nc(-c2ccc(F)cc2)ccc1=O)NCCc1ccccc1.O=C(O)C(F)(F)F [NCGC00262332-01] | -24% |  | 56.2 µM | -2.4 | 
31 | CC(C)COc1ccc(-c2ccc(=O)n(CC(=O)NCCc3ccccc3)n2)cc1.O=C(O)C(F)(F)F [NCGC00262348-01] | -38% |  | 56.2 µM | -2.4 | 
32 | O=C(O)C(F)(F)F.O=C(c1cnc(N2CCCCC2)c2ccccc12)N1CCN(c2ccccc2)CC1 [NCGC00262736-01] | -64% |  | 31.6 µM | -3 | 
33 | O=Cc1ccc(O)c(O)c1O [NCGC00262933-01] | -62% | -2.4 | 56.2 µM |  | 
34 | Cc1ccc(S(=O)(=O)Nc2ccc(OC(F)(F)F)cc2C(=O)Nc2nc(-c3ccccc3)cs2)cc1.O=C(O)C(F)(F)F [NCGC00262991-01] | -27% |  | 44.7 µM | -2.4 | 
35 | CCCCCCCc1ccc(CCc2cccc(O)c2C(=O)O)cc1 [NCGC00263121-01] | -33% | -3 | 24.1 µM |  | 
36 | COc1ccccc1-c1cccc(-c2c(O)c3cc(C#N)c(Cl)cc3[nH]c2=O)c1 [NCGC00263230-01] | -24% | -2.4 | 62.2 µM |  | 
37 | Nc1nc2[nH]cnc2c(=S)[nH]1 [NCGC00263442-01] | -56% |  | 79.4 µM | -3 | 
38 | CN(C)[C@@H]1C(=O)C(C(=O)NCN2CCCC2)=C(O)[C@@]2(O)C(=O)C3=C(O)c4c(O)cccc4[C@@](C)(O)[C@H]3C[C@@H]12 [NCGC00263906-02] | -27% |  | 56.2 µM | -2.4 | 
39 | COc1cccc2c1C(=O)c1c(O)c3c(c(O)c1C2=O)C[C@@](O)(C(=O)CO)C[C@@H]3O[C@H]1C[C@H](N)[C@@H](O)[C@H](C)O1 [NCGC00263918-04] | -58% |  | 18.5 µM |  | 
40 | Cc1ccc(C)n1-c1cnccc1C(=O)O.O=C(O)C(F)(F)F [NCGC00273496-01] | -39% |  | 44.7 µM | -2.4 | 
41 | Cc1ccc(C)n1-c1ccc(C(=O)O)cc1.O=C(O)C(F)(F)F [NCGC00273552-01] | -38% | -2.2 | 44.7 µM |  | 
42 | Cc1ccc(S(=O)(=O)Nc2ccc(O)c3ccccc23)c(C)c1.O=C(O)C(F)(F)F [NCGC00273983-01] | -34% | -2.4 | 56.2 µM |  | 
43 | Cc1ccc(C)n1-c1ccccc1C(=O)O.O=C(O)C(F)(F)F [NCGC00274054-01] | -40% | -2.4 | 50.1 µM |  | 
44 | Nc1nc2c(s1)C(c1ccccc1Cl)CC(O)=N2 (stereo not shown) [NCGC00284018-04] | -37% |  | 53.2 µM | -2.4 | 
45 | CC(=O)NCc1ccc(-c2csc(Nc3cccc(C)c3)n2)o1.O=C(O)C(F)(F)F [NCGC00304445-03] | -38% | -2.4 | 44.7 µM |  | 
46 | CC(=O)NCc1ccc(-c2csc(Nc3cc(C)cc(C)c3)n2)o1.O=C(O)C(F)(F)F [NCGC00314997-03] | -84% | -2.4 | 50.1 µM |  | 
47 | CCCc1ccc(-c2csc(NC(=O)c3ccncc3NS(=O)(=O)c3ccc(C)cc3)n2)cc1.O=C(O)C(F)(F)F [NCGC00318955-01] | -35% | -2.4 | 50.1 µM |  | 
48 | COc1cccc(-c2csc(NC(=O)c3ccncc3NS(=O)(=O)c3ccc(C)cc3)n2)c1.O=C(O)C(F)(F)F [NCGC00319006-01] | -58% | -2.2 | 47.4 µM |  | 
